Laboratory results reported in patent US20260193293A1, “PEPTIDES CAPABLE OF INHIBITING PROTEIN-PROTEIN INTERACTIONS AT GABAB1A SUBUNIT AND USES THEREOF” (UNIVERSITY OF COPENHAGEN, priority 2022, published 2026).
Read-outs that look alike come from different tables or passages of the source. One block for each molecule: values may come before it. Non-standard residues stand in square brackets, D forms with d. Residues, ends and D or L forms follow the SMILES beside them. Phe(4-NH2) = Nc1ccc(C[C@H](N)C(=O)O)cc1; 1Nal = N[C@@H](Cc1cccc2ccccc12)C(=O)O; NMeE = CN[C@@H](CCC(=O)O)C(=O)O; NMeD = CN[C@@H](CC(=O)O)C(=O)O; NMeV = CN[C@H](C(=O)O)C(C)C; Sar = CNCC(=O)O

Biological target: Sushi domains (SD1/2) protein
Assay: Fluorescence polarization (FP) competition assay with AJAP-1probe, calculated Ki
Assay type: binding
Procedure, shortened: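 Ki values were derived from IC50s (sigmoidal fits, ≥ triplicate), with probe Kd obtained by saturation titration of SD1/2. Peptides displaced a 25 nM TAMRA-labelled probe; polarization read at 530/580 nm in 1% BSA-containing PBS, pH 7.4, room temperature.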

[1] = Table 11, deep mutational scanning validation variants of AJAP-1WT, read-out: Ki (nM) mean ± SEM
[2] = Table 7, Ala-, D-amino acids and N-methylation scans of APPWT, read-out: Ki (nM) mean ± SEM
[3] = Table 16, ncAAs incorporated peptides, read-out: Ki (nM) mean ± SEM
[4] = Table 4, truncation and elongation scans of APP epitope, read-out: Ki (nM) mean ± SEM

Ki (Table 12, deep mutational scanning validation variants of PIANPWT, read-out: Ki (nM) mean ± SEM): 412 ± 20 nM
Molecule: CC[C@H](C)[C@H](NC(=O)[C@H](C)NC(=O)[C@H](Cc1c[nH]c2ccccc12)NC(=O)[C@@H](NC(C)=O)C(C)C)C(=O)N[C@H](C(=O)N[C@@H](Cc1c[nH]c2ccccc12)C(=O)NCC(=O)N1CCC[C@H]1C(=O)N[C@H](C(=O)N[C@H](C(=O)N[C@@H](CO)C(=O)N[C@@H](CCCNC(=N)N)C(=O)N[C@@H](CCC(=O)O)C(=O)N[C@@H](CC(=O)O)C(N)=O)C(C)C)[C@@H](C)O)C(C)C [VWAIVWGPTVSRED] (Ac-VWAIVWGPTVSRED-NH2)

Ki [1]: 37 ± 2 nM
Molecule: CC[C@H](C)[C@H](NC(=O)[C@H](Cc1ccccc1)NC(=O)[C@H](CCC(=O)O)NC(=O)[C@@H](NC(=O)[C@H](CCC(=O)O)NC(C)=O)[C@@H](C)O)C(=O)N[C@@H](C)C(=O)N[C@@H](Cc1c[nH]c2ccccc12)C(=O)NCC(=O)N1CCC[C@H]1C(=O)N[C@H](C(=O)NCC(=O)N[C@@H](CC(=O)O)C(=O)N[C@@H](CCC(=O)O)C(=O)N[C@@H](CCC(N)=O)C(N)=O)[C@@H](C)O (Ac-ETEFIAWGPTGDEQ-NH2)

Ki (Table 9, Ala-, D-amino acids and N-methylation scans of PIANPWT, read-out: Ki (nM) mean ± SEM): 7000 ± 100 nM
Molecule: CC[C@H](C)[C@H](NC(=O)[C@H](C)NC(=O)[C@H](Cc1c[nH]c2ccccc12)NC(=O)[C@@H]1CCCN1C(C)=O)C(=O)N(C)[C@H](C(=O)N[C@@H](Cc1c[nH]c2ccccc12)C(=O)NCC(=O)N1CCC[C@H]1C(=O)N[C@H](C(=O)N[C@H](C(=O)N[C@@H](CO)C(=O)N[C@@H](CCCNC(=N)N)C(=O)N[C@@H](CCC(=O)O)C(=O)N[C@@H](CC(=O)O)C(N)=O)C(C)C)[C@@H](C)O)C(C)C [PWAI(N-Me-V)WGPTVSRED] (Ac-PWAI[NMeV]WGPTVSRED-NH2)

Ki (Table 3, SPOT hit validation and previously reported peptides, read-out: Ki (nM) mean ± SEM): 73 ± 1 nM
Molecule: CC[C@H](C)[C@H](NC(=O)[C@H](Cc1ccccc1)NC(=O)[C@H](CCC(=O)O)NC(=O)[C@@H](NC(=O)[C@H](CCC(=O)O)NC(=O)[C@@H](NC(=O)[C@@H](NC(C)=O)[C@@H](C)O)[C@@H](C)O)[C@@H](C)O)C(=O)N[C@@H](C)C(=O)N[C@@H](Cc1c[nH]c2ccccc12)C(=O)NCC(=O)N1CCC[C@H]1C(=O)N[C@H](C(=O)NCC(=O)N[C@@H](CC(=O)O)C(=O)N[C@@H](CCC(=O)O)C(N)=O)[C@@H](C)O (Ac-TTETEFIAWGPTGDE-NH2)

Ki (CPP tagged peptides overview, SD1/2 binding affinity, mean ± SEM, n ≥ 3, read-out: Ki): 100 ± 4 nM
Ki (Table 14, CPPs tagged peptides, read-out: Ki (nM) mean ± SEM): 99.5 ± 4 nM
Molecule: CC[C@H](C)[C@H](NC(=O)[C@H](Cc1c[nH]c2ccccc12)NC(=O)[C@H](CC(=O)O)NC(=O)[C@H](CC(=O)O)NC(=O)[C@H](CC(=O)O)NC(=O)[C@H](CCC(=O)O)NC(C)=O)C(=O)N[C@@H](CC(=O)O)C(=O)N[C@@H](Cc1c[nH]c2ccccc12)C(=O)N[C@@H](Cc1ccc(O)cc1)C(=O)N[C@@H](CC(=O)O)C(=O)N[C@@H](CO)C(=O)N[C@@H](CC(=O)O)C(=O)N[C@@H](CC(=O)O)C(=O)N[C@@H](CC(=O)O)C(=O)N[C@@H](CCC(=O)O)C(=O)N[C@@H](C)C(=O)N[C@@H](C)C(=O)N[C@@H](C)C(=O)N[C@@H](CCCCN)C(=O)N[C@@H](CCCNC(=N)N)C(=O)N[C@@H](CCCNC(=N)N)C(=O)N[C@@H](CCCNC(=N)N)C(=O)N[C@@H](CCCNC(=N)N)C(=O)N[C@@H](CCCNC(=N)N)C(=O)N[C@@H](CCCNC(=N)N)C(=O)N[C@@H](CCCNC(=N)N)C(=O)N[C@@H](CCCNC(=N)N)C(N)=O [Peptide 16-RL-R8] (Ac-EDDDWIDWYDSDDDEAAAKRRRRRRRR-NH2)

Ki [1]: 26 ± 1 nM
Molecule: CC[C@H](C)[C@H](NC(=O)[C@H](Cc1ccccc1)NC(=O)[C@H](CC(=O)O)NC(=O)[C@@H](NC(=O)[C@H](CCC(=O)O)NC(C)=O)[C@@H](C)O)C(=O)N[C@@H](C)C(=O)N[C@@H](Cc1c[nH]c2ccccc12)C(=O)NCC(=O)N1CCC[C@H]1C(=O)N[C@H](C(=O)NCC(=O)N[C@@H](CC(=O)O)C(=O)N[C@@H](CCC(=O)O)C(=O)N[C@@H](CC(=O)O)C(N)=O)[C@@H](C)O [ETDFIAWGPTGDED] (Ac-ETDFIAWGPTGDED-NH2)

Ki [2]: 3760 ± 64 nM
Molecule: CC(=O)N[C@@H](CCC(=O)O)C(=O)N[C@@H](CC(=O)O)C(=O)N[C@@H](CC(=O)O)C(=O)N[C@@H](CO)C(=O)N(C)[C@@H](CC(=O)O)C(=O)N[C@H](C(=O)N[C@@H](Cc1c[nH]c2ccccc12)C(=O)N[C@@H](Cc1c[nH]c2ccccc12)C(=O)NCC(=O)NCC(=O)N[C@@H](C)C(=O)N[C@@H](CC(=O)O)C(=O)N[C@H](C(=O)N[C@@H](CC(=O)O)C(N)=O)[C@@H](C)O)C(C)C (Ac-EDDS[NMeD]VWWGGADTD-NH2)

Ki (Table 13, peptides for affinity maturation, read-out: Ki (nM) mean ± SEM): 201 ± 6 nM
Molecule: CC(=O)N[C@@H](CCC(=O)O)C(=O)N[C@@H](CC(=O)O)C(=O)N[C@@H](CC(=O)O)C(=O)N[C@@H](CO)C(=O)N[C@@H](CC(=O)O)C(=O)N[C@H](C(=O)N[C@@H](Cc1c[nH]c2ccccc12)C(=O)N[C@@H](Cc1c[nH]c2ccccc12)C(=O)N[C@@H](Cc1ccc(O)cc1)C(=O)N(C)CC(=O)N[C@@H](C)C(=O)N[C@@H](CC(=O)O)C(=O)N[C@H](C(=O)N[C@@H](CC(=O)O)C(N)=O)[C@@H](C)O)C(C)C (Ac-EDDSDVWWY[Sar]ADTD-NH2)

Ki (Table 8, Ala-, D-amino acids and N-methylation scans of AJAP-1WT, read-out: Ki (nM) mean ± SEM): 159 ± 3 nM
Molecule: CC[C@H](C)[C@H](NC(=O)[C@H](Cc1ccccc1)NC(=O)[C@H](CCC(=O)O)N(C)C(=O)[C@@H](NC(=O)[C@H](CCC(=O)O)NC(C)=O)[C@@H](C)O)C(=O)N[C@@H](C)C(=O)N[C@@H](Cc1c[nH]c2ccccc12)C(=O)NCC(=O)N1CCC[C@H]1C(=O)N[C@H](C(=O)NCC(=O)N[C@@H](CC(=O)O)C(=O)N[C@@H](CCC(=O)O)C(=O)N[C@@H](CC(=O)O)C(N)=O)[C@@H](C)O [ET(N-Me-E)FIAWGPTGDED] (Ac-ET[NMeE]FIAWGPTGDED-NH2)

Ki [3]: 184 ± 3 nM
Molecule: EDDS(Aphe)VWWGGADTD (Ac-EDDS[Phe(4-NH2)]VWWGGADTD-NH2)

Ki [2]: 786 ± 29 nM
Molecule: CC(=O)N[C@@H](CCC(=O)O)C(=O)N[C@@H](CC(=O)O)C(=O)N[C@@H](CC(=O)O)C(=O)N[C@@H](CO)C(=O)N[C@@H](CC(=O)O)C(=O)N[C@H](C(=O)N[C@@H](Cc1c[nH]c2ccccc12)C(=O)N[C@@H](Cc1c[nH]c2ccccc12)C(=O)NCC(=O)NCC(=O)N[C@@H](C)C(=O)N[C@@H](CC(=O)O)C(=O)N[C@H](C(=O)N[C@@H](C)C(N)=O)[C@@H](C)O)C(C)C (Ac-EDDSDVWWGGADTA-NH2)

Ki [4]: 1500 ± 66 nM
Molecule: CC(=O)N[C@@H](CC(=O)O)C(=O)N[C@@H](CO)C(=O)N[C@@H](CC(=O)O)C(=O)N[C@H](C(=O)N[C@@H](Cc1c[nH]c2ccccc12)C(=O)N[C@@H](Cc1c[nH]c2ccccc12)C(=O)NCC(=O)NCC(=O)N[C@@H](C)C(=O)N[C@@H](CC(=O)O)C(=O)N[C@H](C(=O)N[C@@H](CC(=O)O)C(=O)N[C@@H](Cc1ccc(O)cc1)C(=O)N[C@@H](C)C(=O)N[C@@H](CC(=O)O)C(N)=O)[C@@H](C)O)C(C)C (Ac-DSDVWWGGADTDYAD-NH2)

Ki [3]: 114 ± 1 nM
Molecule: CC(=O)N[C@@H](CCC(=O)O)C(=O)N[C@@H](CC(=O)O)C(=O)N[C@@H](CC(=O)O)C(=O)N[C@@H](CO)C(=O)N[C@@H](CC(=O)O)C(=O)N[C@H](C(=O)N[C@@H](Cc1c[nH]c2ccccc12)C(=O)N[C@@H](Cc1c[nH]c2ccccc12)C(=O)N[C@@H](Cc1cccc2ccccc12)C(=O)NCC(=O)N[C@@H](C)C(=O)N[C@@H](CC(=O)O)C(=O)N[C@H](C(=O)N[C@@H](CC(=O)O)C(N)=O)[C@@H](C)O)C(C)C (Ac-EDDSDVWW[1Nal]GADTD-NH2)

Ki [4]: > 62500 nM
Molecule: CC(=O)NCC(=O)NCC(=O)N[C@@H](C)C(=O)N[C@@H](CC(=O)O)C(=O)N[C@H](C(=O)N[C@@H](CC(=O)O)C(=O)N[C@@H](Cc1ccc(O)cc1)C(=O)N[C@@H](C)C(=O)N[C@@H](CC(=O)O)C(N)=O)[C@@H](C)O (Ac-GGADTDYAD-NH2)
